Like-named read-outs stand apart in the source and are kept apart here.
Experiments:
Type in all cases: cell-based
A-673 cells = test: Cell viability, crystal violet staining; settings: Homo sapiens
In short: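 Readout is absorbance at 570 nm of crystal violet, taken up in 0.1 M sodium citrate in 50% ethanol after staining with 0.5% dye in 25% methanol. Plates held 5×10^3 cells per well, and compounds were added one day after seeding for 72 hours. Data are relative to vehicle, mean±SE.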

SMN2^Δ7 mRNA = test: SMN2 splicing assay, real-time quantitative PCR, SMA type I patient cells (GM03813); settings: Homo sapiens, 24 hours
Description: (§1) Various cells lines were treated with the SMSMs described herein. RNA was then isolated, cDNA synthesized, qPCR performed and the levels of various mRNA targets of the SMSMs were determined. In some instances, RNA was isolated, cDNA synthesized, qPCR performed and the levels of mRNA isoforms in the various cell samples were determined.
(§2) SMA type I patient cells (GM03813 (Coriell))
(§3) On the day of the experiment, a 96-well plate was seeded with the cell lines of interest. The cells were diluted with full growth media to a concentration of 2.0×10^5 cells/mL and 100 μL of cells were added to each well (20,000 cells per well). The cells were treated with a compound immediately after plating.
(§4) The compounds were then added to the cell plate using the HP compound dispenser. In the initial experiment, a top concentration of 10 μM and an 8 point 4-fold dilution scheme was used. The stock compounds were made at a concentration of 5 mM, and the DMSO concentration was set to 0.2%. DMSO was used to normalize all the compound-containing wells and the untreated cells.
(§5) The treated cells were incubated at 37° C. in a 5% CO2 incubator for the desired amount of time. Plates were placed in a plastic bag with a wet paper towel to prevent evaporation.
(§6) RNA was isolated using the Cells to CT kit (ThermoFisher, AM1728). The cells were washed once with 100 μL cold PBS. 50 μL of lysis buffer was added to each well/tube (49.5 μL lysis buffer+0.5 μL DNase I per well/tube). The lysis reaction was mixed and incubated at room temperature for 5 minutes. 5 μL of stop solution was added directly into each cell lysis reaction and mixed by pipetting up and down 5 times. The plates/tubes were incubated at room temperature for 2 minutes then placed on ice if the cDNA synthesis was to be performed immediately. Otherwise, the plates/tubes were stored at −80° C.
(§7) cDNA synthesis reactions were then performed. 40 μL RT master mix was added to PCR tubes or plate wells. 10 μL of RNA was added to each tube/well. The RT thermal cycler program was then run and tubes or plate wells were incubated at 37° C. for 1 hour, then at 95° C. for 5 minutes to deactivate the enzyme.
(§8) The qPCR was performed using a QuantStudio 6instrument (ThermoFisher) and the following cycling conditions and according to the tables below. All samples and standards were analyzed in triplicate. Cycle 1: 2 minutes at 50° C. Cycle 2: 10 minutes at 95′C. Cycle 3 (repeat 40 times): 15 seconds at 95° C., 1 minute at 60° C.
(§9) The determined SMN2^Δ7 and SMN2^FL quantities were then be used to determine the SMN2^Δ7:SMN2^FL ratio at the various compound concentrations. The PPIA quantities were used in the normalization to account of cell proliferation effects of the compounds.
(§10) An assay to measure the SMN2^FL mRNA and SMN2^Δ7 mRNA simultaneously in cell wells was performed. The RNA values were measured relative to DMSO control and also included a housekeeping gene, PPIA to ensure data was consistent. The mRNA values were measured after 24 hours of incubation with the SMSM compounds.
(§11) Additionally, to monitor expression levels of SMN2 splice variant using real-time quantitative PCR, SMA type I patient cells (GM03813 (Coriell)) were plated at 5,000 cells/well in 200 μl Dulbecco's modified Eagle's medium (DMEM) with GlutaMAX and 10% fetal bovine serum (FBS) (Life Technologies, Inc.) in 96-well plates, and incubated for 6 hours in a cell culture incubator. Cells were then treated with SMSMs at different concentrations (0.5% DMSO) in duplicate for 24 hours. After removal of the supernatant, cells were lysed in Cells-To-Ct lysis buffer (Life Technologies, Inc.) according to the manufacturer's recommendations. The mRNA levels of SMN2 FL, SMN2 A7 were quantified using Taqman-based RT-qPCR and SMN2-specific primers and probes. The SMN2 forward and reverse primers were each used at a final concentration of 0.4 μM. The SMN2 probe was used at a final concentration of 0.1 μM. […]

SMN2^FL mRNA = test: as above; settings: Homo sapiens, 24 hours
Description: as §1, §2, §3, §4, §5, §6, §7, §8, §9, §10, §11

[1] = A673, cell viability, read-out: A-673 IC50 (nM) Cell viability
[2] = A673, read-out: A-673 cell viability (IC50)

Row | SMILES | IC50 (A-673 cells; [1]) [nM] | IC50 (SMN2^Δ7 mRNA) [nM] | EC50 (SMN2^FL mRNA) [nM] | IC50 (A-673 cells; [2]) [nM]
1 | CN(c1ccc(-c2ccc(-c3cn[nH]c3)cc2O)nn1)[C@@H]1C[C@H]2CC[C@@H](C1)N2 [compound 138, 2-(6-(((1R,3s,5S)-8-azabicyclo[3.2.1]octan-3-yl)(methyl)amino)pyridazin-3-yl)-5-(1H-pyrazol-4-yl)phenol] | 10 to 100 | 1 | 1 | 
2 | CN(c1ccc(-c2ccc(-c3cn[nH]c3)cc2O)nn1)[C@H]1C[C@]2(C)CC[C@](C)(C1)N2 [compound 151, 2-(6-(((1R,3s,5S)-1,5-dimethyl-8-azabicyclo[3.2.1]octan-3-yl)(methyl)amino)pyridazin-3-yl)-5-(1H-pyrazol-4-yl)phenol] | < 10 | 0.9 | 0.7 | ≤ 5
3 | CN(c1ccc(-c2ccc(-c3cn[nH]c3)cc2O)nn1)[C@@H]1C[C@H]2CCC[C@@H](C1)N2 [compound 160, 2-(6-(((1R,3s,5S)-9-azabicyclo[3.3.1]nonan-3-yl)(methyl)amino)pyridazin-3-yl)-5-(1H-pyrazol-4-yl)phenol] | < 10 | 0.7 | 0.6 | ≤ 5
